# How the values were obtained:
# Assay type in all cases: in vitro ADME
# [1] = Stability of vepdegestrant in mouse plasma under storage conditions (method validation)
# Method: The results were within ±15% RE under all storage conditions, including at room temperature for 6 h, after three freeze–thaw cycles, at −20 °C for 4 weeks, and in an autosampler for 24 h after sample preparation.
# Stability was tested for vepdegestrant in biological samples at LQC and HQC under specific conditions: Short-term stability at room temperature for 6 h, three freeze–thaw cycles, long-term stability at −20 °C for 4 weeks, and pretreated samples in an autosampler for 24 h. The stability test was performed via five replicates analysis, with the acceptance criteria being an RE within ±15% at LQC and HQC levels.
# [2] = Plasma stability at 4, 25 and 37 °C; details: mouse and rat plasma at 4, 25 and 37 °C, 4 h incubation, 0.1 µg/mL
# Method: Plasma stability of vepdegestrant was investigated in mouse and rat plasma. Vepdegestrant (10 µL) was added to blank mouse or rat plasma (490 µL) to prepare a final concentration of 0.1 µg/mL. The mixtures were incubated at 4, 25, and 37 °C. After 0, 1, and 4 h of incubation, aliquots (50 µL) were added to microtubes containing ice-cold ACN solution with an IS (200 µL) to terminate the reaction. The mixture was vortexed thoroughly for 10 min and centrifuged at 17,054 g under 25 °C for 10 min. Subsequently, the supernatant (100 µL) was taken, and 5 µL was injected for HPLC-MS/MS analysis.
# [3] = Metabolic stability in mouse liver microsomes; details: 60 min, 1 μM, with NADPH
# Method: (§1) The metabolic stability of vepdegestrant was evaluated using liver microsomes obtained from mice, rats, dogs, and humans. Vepdegestrant was dissolved in DMSO to prepare a stock solution with a concentration of 0.1 mM. Microsomes (25 µL) were spiked into PBS (440 µL) and pre-incubated for 5 min. After pre-incubation, vepdegestrant stock solution (5 µL) was added, followed by an NADPH regenerating system (27 µL) to initiate the reaction. The composition of the reaction mixture was as follows: Vepdegestrant (final concentration 1 µM), mouse, rat, dog, human liver microsomes (protein concentration: 1 mg/mL), NADPH regenerating system (final concentrations: 1.3 mM NADP^+, 3.3 mM glucose-6-phosphate, 0.4 U/mL glucose-6-phosphate dehydrogenase, and 3.3 mM magnesium chloride), and PBS (pH 7.4). At 5, 15, 30, and 60 min after starting the reaction, aliquots (50 µL) were taken and added to ice-cold ACN with an IS (200 µL) to terminate the reaction. For the zero-time samples, aliquots were taken before adding NADPH. Subsequently, the mixture was vigorously mixed for 10 min and centrifuged at 17,054 g under 25 °C for 10 min. For analysis, 5 µL of the supernatant was injected into the HPLC-MS/MS system. In addition, the stability of vepdegestrant in rat liver microsomes was assessed in the absence of NADPH or NADPH and microsomes (PBS only). […]
# [4] = Metabolic stability in dog liver microsomes
# Method: as §1
compound,measurement,setting,value
"O=C1CC[C@H](N2Cc3cc(N4CCN(CC5CCN(c6ccc([C@@H]7c8ccc(O)cc8CC[C@@H]7c7ccccc7)cc6)CC5)CC4)ccc3C2=O)C(=O)N1 [vepdegestrant, Vepdegestrant]",Stability in Mouse Plasma,"[1]; 1 month at −20 °C, nominal 3 ng/mL",103.1 ± 5.4%
same,Stability in Mouse Plasma,"[1]; 1 month at −20 °C, nominal 900 ng/mL",107.7 ± 4.0%
same,Stability in Mouse Plasma,"[1]; 6 h at room temperature (25 °C), nominal 3 ng/mL",97.70 ± 4.12%
same,Stability in Mouse Plasma,"[1]; 6 h at room temperature (25 °C), nominal 900 ng/mL",110.7 ± 2.8%
same,Stability in Mouse Plasma,"[1]; Freeze–thaw three-cycle (−20 °C → RT), nominal 3 ng/mL",99.78 ± 1.60%
same,Stability in Mouse Plasma,"[1]; Freeze–thaw three-cycle (−20 °C → RT), nominal 900 ng/mL",103.3 ± 4.1%
same,Stability in Mouse Plasma,"[1]; Processed sample in 10 °C autosampler for 24 h, nominal 3 ng/mL",104.0 ± 7.2%
same,Stability in Mouse Plasma,"[1]; Processed sample in 10 °C autosampler for 24 h, nominal 900 ng/mL",98.49 ± 8.79%
same,vepdegestrant remaining in plasma,[2],86.3–113.5%
same,remaining percentage of unconverted vepdegestrant,[3],106%
same,remaining percentage of unconverted vepdegestrant,"[4]; 60 min, 1 μM, with NADPH",97.1%
same,half-life at 1 µM,"[4]; beagle, liver microsomes, pH 7.4",9.85 h
